Experimental data from patent US12590130B2, “Bipartite molecules and uses thereof in treating diseases associated with abnormal protein aggregates” (ACADEMIA SINICA, priority 2014, dated 2026).

Columns and labels:
APP×PS1 transgenic mice [1] = experiment: Thioflavin S staining of amyloid plaques in APP×PS1 mice; assay type: in vivo, mouse; conditions: vs PEI
APP×PS1 transgenic mice [2] = experiment: Cytometric bead array for IL-6 and IL-1β in brain of APP×PS1 mice; assay type: in vivo, mouse; conditions: cortex, 8 month-old Tg mice
Protocol: (§1) APP×PS1 transgenic mice (B6C3-Tg (APPswe,PSEN1dE9) 85Dbo/Mmjax, purchased from Jackson Laboratories (USA), were bred and genotyped following the vendor's protocols. Borchelt et al., Neuron (1996) 17:1005-13; and Jankowsky et al., Biomol Eng (2001) 17:157-65. The mice had access to food and water ad libitum and were kept on a 12:12 h light-dark cycle. PEI and R8A β 25-35-PEI were dissolved in 100 mM NaH2PO4/138 mM KCl (pH 5) to a final concentration of 400 μM. For intranasal administration, 2.5 μL PEI or R8-A β (25-35)-PEI was given to each nostril of one mouse when they were […] for six days/week until they were 8 months of age. Mice were then tested with a Morris water maze. Treatment were resumed after a 6-week break for the water maze test, and continued until the mice were 12 months of age.
A cytometric bead array (CBA, mouse inflammation kit; BD Biosciences) was used to quantitatively measure cytokine expression levels in the control and treated mouse brain tissue lysates. […] This method quantifies soluble particles, in this case, cytokines, using a fluorescence-based detection mechanism. The beads, coated with the desired cytokine, IL-6 and IL-1B, reacted with the test lysates and standards, to which fluorescence dyes were then added. The assay was performed according to the manufacturer's instructions and analyzed on the FACS Calibur (Becton Dickinson). […]

APP×PS1 transgenic mice [3] = experiment: Morris water maze in APP×PS1 transgenic mice; assay type: in vivo, mouse; conditions: vs PEI
From the text: FIG. 12. R8-Aβ(25-35)-PEI improved memory as measured by the Morris water maze assay. Panel A: Plot of the escape latency period of wild type (WT) and APP×PS1 transgenic (Tg) mice of 8 months of age treated with either PEI or R8-Aβ(25-35) peptide from the age of 4 months to 8 months. […] Panel B: Percentage of time of WT or Tg mice treated as indicated spent in swimming in the target quadrant where the hidden platform used to be. The times of the indicated mice crossing the target quadrant. […] Panel C: The percentage of time of the WT or Tg mice as indicated crossing the target quadrant. Ten mice per group were used in this study. The statistics were performed with two way ANOVA with Fisher's LSD posthoc analysis. N=10/group *<0.05; ***<0.0005; ****<0.0001
as §1
The maze was made of white opaque plastic with a diameter of 120 cm and contained 40 cm high walls. It was filled with milk/water at 25° C. […] The path length and escape latencies were recorded (n=10 per group). Acquisition data, such as time taken to reach the escape platform and path length were analyzed by two-way repeated measures ANOVA. […] The platform was removed from the maze and animals were allowed to swim freely for 90 s and the swimming path was recorded and analyzed.

109QmHtt aggregates = experiment: Co-localization of TAMRA-labeled peptide with 109QmHtt aggregates in Neuro2a cells; assay type: cell-based; conditions: Neuro2a cells expressing 109QmHtt
Protocol: FIG. 3. Diagrams showing the co-localization of tested bipartite peptides with the 109QmHtt aggregates. Panel A: Structure of TAMRA-labeled 8R10Q used in this study. Panel B: Epifluorescence micrographs of Neuro2a cells expressing 109QmHtt treated with TAMRA-8R10Q (8R10Q) at various time points. Note the co-localization of 8R10Q and 109QmHttGFP aggregates (GFP) from 8-24 hours (arrows). Scale bar: 10 μm. Panel C: TIRF micrographs of the Neuro2a expressing 109QmHtt treated with water or peptides as indicated at various time points. Note the decrease in aggregate size in 8R10Q and 8R15Q-treated cells. Panel D: Quantitation of the size of individual aggregates in Neuro2a at 8 hours (left) and 24 hours (right) after peptide treatment. […] Panel E: Quantitation of the number of aggregates in 20 Neuro2a cells at 12 hours (left) and 24 hours (right) after peptide treatment. Both the 8R10Q and 8R15Q increased the number of aggregates. Statistics performed with one way ANOVA. **p<0.01; ***p<0.001.
The ability of 8R10Q to bind to the 109QmHtt was examined by determining its co-localization with the 109QmHtt aggregates. The 8R10Q peptide was labeled with carboxytetramethylrhodamine (TAMRA) dye (FIG. 3, panel A), and added into Neuro2a cells expressing 25QHtt or 109QmHtt.

[4] = Solubility of therapeutic peptides; assay type: physicochemical; conditions: DMEM/10% FBS
Protocol: In this study, the rational design was tested for HD. Several bipartite therapeutic peptides containing 8 consecutive arginines (8R) attached to a stretch of consecutive glutamines (polyQ) were synthesized and their biological activity of decreasing the aggregation propensity of the mHtt protein was investigated. The length of the polyQ of these bipartite peptides was 5 (8R5Q), 10 (8R10Q), 15 (8R15Q) or 20 (8R20Q) (Table 2).

Chain of 109QmHtt aggregates (P42858 with tags, fused parts or gaps limits assumed): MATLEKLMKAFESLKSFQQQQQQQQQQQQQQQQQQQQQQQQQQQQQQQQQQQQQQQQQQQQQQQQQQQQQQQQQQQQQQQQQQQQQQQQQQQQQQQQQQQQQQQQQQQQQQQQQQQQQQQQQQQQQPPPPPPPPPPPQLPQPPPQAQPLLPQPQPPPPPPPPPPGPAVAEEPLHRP

Substance | number of plaques (APP×PS1 transgenic mice [1]; cortex and hippocampus, 8 month-old) | percentage of the plaque areas (APP×PS1 transgenic mice [1]; cortex and hippocampus) | total area of amyloid plaques (APP×PS1 transgenic mice [1]; cortex and hippocampus) | average size of individual plaques (APP×PS1 transgenic mice [1]) | level of IL-1β (APP×PS1 transgenic mice [2]) | level of IL-6 (APP×PS1 transgenic mice [2]) | escape latency / learning to find hidden platform (APP×PS1 transgenic mice [3]; Tg mice 8 months of age, intranasal) | time spent in the target quadrant (probe test) (APP×PS1 transgenic mice [3]; Tg mice) | learning curve of finding the hidden platform (APP×PS1 transgenic mice [3]; wild-type mice) | co-localization with 109QmHtt aggregates (109QmHtt aggregates) | Solubility (DMEM/10% FBS) [4]
RRRRRRRRGSNKGAIIGLM-PEI (not fully specified; PEI conjugate) [R8-Aβ(25-35)-PEI] | significantly reduced | significantly decreased | correspondingly decreased | failed to reach statistical significance | effectively decreased | effectively decreased | significant shortening of the latency | increased the time of Tg mice in the target quadrant | no clear difference in the learning curve |  | 
TAMRA-NH-(R)8-W-D-(Q)10-CONH2 ({TAMRA}-RRRRRRRRWDQQQQQQQQQQ-NH2) [TAMRA-8R10Q] |  |  |  |  |  |  |  |  |  | co-localized with the aggregates | Soluble
